{
  "source": "patent US9545461B2",
  "about": "“Anti-microbial peptides and methods of use thereof” (priority 2011, dated 2017)",
  "key": {"[1]": {"tested_on": "P. aeruginosa clinical isolate 6294", "assay_type": "cell-based", "details": "Pseudomonas aeruginosa, 3 h, 200 μg/ml"}, "[2]": {"tested_on": "cystic fibrosis isolate 2192", "details": "Pseudomonas aeruginosa, 3 h, 200 μg/ml"}, "[3]": {"tested_on": "human corneal epithelial cells (TiHCE)", "test": "Effect of peptide treatment alone on epithelial cells", "assay_type": "cell-based"}, "laboratory strain PAO1": {"tested_on": "laboratory strain PAO1", "test": "Antimicrobial activity assay (viable counts at 3 h)", "assay_type": "cell-based, Pseudomonas aeruginosa", "details": "after 3 h, 200 μg/ml in 0.9% NaCl"}, "laboratory strain PA14": {"tested_on": "laboratory strain PA14", "test": "Antimicrobial activity assay (viable counts at 3 h)", "assay_type": "cell-based, Pseudomonas aeruginosa", "details": "200 μg/ml (FIG. 2D)"}, "[4]": {"tested_on": "P. aeruginosa strain 6206", "assay_type": "cell-based", "details": "Pseudomonas aeruginosa, 3 h, 200 μg/ml"}, "[5]": {"tested_on": "P. aeruginosa clinical isolate 6206 cytotoxicity to TiHCE cells", "test": "Cytotoxicity assay (trypan blue staining) in TiHCE cells", "assay_type": "cell-based, Pseudomonas aeruginosa", "details": "3 h", "experimental": "To assess protective activity of against bacterial invasion, high-calcium treated TiHCE cells were incubated with P. aeruginosa clinical isolate 6294 (40 μl/well; 10^6 cfu/ml in crude lysates/lysate fractions versus KBM control for 3 h or 10^8 cfu/ml in peptide-containing saline versus no-peptide saline control for 2 h), followed by gentamicin treatment (200 μg/ml for 1 h). Viable intracellular bacteria was collected with 0.25% Triton-X in PBS (100 μl/well) and quantified by plating on TSA. To assay protection against bacterial cytotoxicity, P. aeruginosa clinical isolate 6206 was used instead (40 μl/well; 10^6 cfu/ml for 3 h). Dead cells were quantified by Trypan-blue (0.04%) staining."}, "[6]": {"test": "Bactericidal effect of phosphorylated vs non-phosphorylated 19-mer (FIG. 6)", "assay_type": "cell-based", "excerpt": "Synthetic 19-mer KDAMP peptides were synthesized with or without tyrosine phosphorylation. The bactericidal effect of the peptides was compared."}, "[7]": {"tested_on": "Streptococcus pyogenes (ATCC 19615)", "assay_type": "cell-based", "details": "200 μg/mL, 3 h"}, "[8]": {"tested_on": "Staphylococcus aureus (ATCC 29213)", "test": "Antimicrobial spectrum analysis", "assay_type": "cell-based", "details": "200 μg/mL, 3 h"}, "[9]": {"tested_on": "Staphylococcus epidermidis (ATCC 12228)", "test": "Antimicrobial spectrum analysis", "assay_type": "cell-based", "details": "200 μg/mL, 3 h"}, "[10]": {"tested_on": "Enterococcus faecalis (ATCC 51188)", "test": "Antimicrobial spectrum analysis", "assay_type": "cell-based", "details": "200 μg/mL, 3 h"}, "[11]": {"tested_on": "Escherichia coli (ATCC 25922)", "test": "Antimicrobial spectrum analysis", "assay_type": "cell-based", "details": "200 μg/mL, 3 h"}, "[12]": {"tested_on": "Serratia marcescens (ATCC 43862)", "test": "Antimicrobial spectrum analysis", "assay_type": "cell-based", "details": "200 μg/mL, 3 h"}, "[13]": {"tested_on": "Candida albicans (ATCC 90028)", "test": "Antimicrobial spectrum analysis", "assay_type": "cell-based", "details": "200 μg/mL, 3 h"}},
  "note": "Square brackets hold non-standard residues; d marks the D form. Ends that are not written are not given here. pY = N[C@@H](Cc1ccc(OP(=O)(O)O)cc1)C(=O)O",
  "data": [
    {"substance": "RAIGGGLSSVGGGSSTIKY [19mer, RAIGGGLSSVGGGSSTIKY]", "values": [
      {"measurement": "reduced viability", "setting": "[1]", "value": 97.5, "unit": "%"},
      {"measurement": "reduced viability", "setting": "[2]", "value": 96.9, "unit": "%"},
      {"measurement": "impact of peptide treatment alone on epithelial cells (morphology, trypan blue exclusion)", "setting": "[3]", "value": "not visibly impacted"},
      {"measurement": "reduced viability", "setting": "laboratory strain PAO1", "value": 96.1, "unit": "%"},
      {"measurement": "reduced viability", "setting": "laboratory strain PA14", "value": 98.7, "unit": "%"},
      {"measurement": "reduced viability", "setting": "[4]", "value": 99.7, "unit": "%"},
      {"measurement": "protection against bacterial induced cytotoxicity compared to controls", "setting": "[5]", "value": 85.1, "unit": "%"}
    ]},
    {"substance": "RAIGGGLSSVGGGSSTIK(phospho-Y) (RAIGGGLSSVGGGSSTIK[pY]) [phosphorylated 19-mer]", "values": [
      {"measurement": "bactericidal activity compared with the non-phosphorylated 19-mer", "setting": "[6]", "value": "significantly increased bactericidal activity"}
    ]},
    {"substance": "AIGGGLSSVGGGSSTIK [17mer, AIGGGLSSVGGGSSTIK]", "values": [
      {"measurement": "susceptibility (in words)", "setting": "[7]", "value": "not susceptible"},
      {"measurement": "activity (in words)", "setting": "[8]", "value": "neither the 19- nor the 17mer peptide was active"},
      {"measurement": "activity (in words)", "setting": "[9]", "value": "neither the 19- nor the 17mer peptide was active"},
      {"measurement": "activity (in words)", "setting": "[10]", "value": "neither the 19- nor the 17mer peptide was active"},
      {"measurement": "activity (in words)", "setting": "[11]", "value": "neither the 19- nor the 17mer peptide was active"},
      {"measurement": "activity (in words)", "setting": "[12]", "value": "neither the 19- nor the 17mer peptide was active"},
      {"measurement": "activity (in words)", "setting": "[13]", "value": "neither the 19- nor the 17mer peptide was active"}
    ]}
  ]
}
